According to the Kinase Knowledgebase extract (Sharma et al. 2016):

Molecular target: PIK3CD (Human) (UniProt O00329)
Assay: Assessment of PIK3CD Kinase Activity (Scintillation Proximity Assay)

Sequence of PIK3CD (Human) (O00329 whole entry, looked up): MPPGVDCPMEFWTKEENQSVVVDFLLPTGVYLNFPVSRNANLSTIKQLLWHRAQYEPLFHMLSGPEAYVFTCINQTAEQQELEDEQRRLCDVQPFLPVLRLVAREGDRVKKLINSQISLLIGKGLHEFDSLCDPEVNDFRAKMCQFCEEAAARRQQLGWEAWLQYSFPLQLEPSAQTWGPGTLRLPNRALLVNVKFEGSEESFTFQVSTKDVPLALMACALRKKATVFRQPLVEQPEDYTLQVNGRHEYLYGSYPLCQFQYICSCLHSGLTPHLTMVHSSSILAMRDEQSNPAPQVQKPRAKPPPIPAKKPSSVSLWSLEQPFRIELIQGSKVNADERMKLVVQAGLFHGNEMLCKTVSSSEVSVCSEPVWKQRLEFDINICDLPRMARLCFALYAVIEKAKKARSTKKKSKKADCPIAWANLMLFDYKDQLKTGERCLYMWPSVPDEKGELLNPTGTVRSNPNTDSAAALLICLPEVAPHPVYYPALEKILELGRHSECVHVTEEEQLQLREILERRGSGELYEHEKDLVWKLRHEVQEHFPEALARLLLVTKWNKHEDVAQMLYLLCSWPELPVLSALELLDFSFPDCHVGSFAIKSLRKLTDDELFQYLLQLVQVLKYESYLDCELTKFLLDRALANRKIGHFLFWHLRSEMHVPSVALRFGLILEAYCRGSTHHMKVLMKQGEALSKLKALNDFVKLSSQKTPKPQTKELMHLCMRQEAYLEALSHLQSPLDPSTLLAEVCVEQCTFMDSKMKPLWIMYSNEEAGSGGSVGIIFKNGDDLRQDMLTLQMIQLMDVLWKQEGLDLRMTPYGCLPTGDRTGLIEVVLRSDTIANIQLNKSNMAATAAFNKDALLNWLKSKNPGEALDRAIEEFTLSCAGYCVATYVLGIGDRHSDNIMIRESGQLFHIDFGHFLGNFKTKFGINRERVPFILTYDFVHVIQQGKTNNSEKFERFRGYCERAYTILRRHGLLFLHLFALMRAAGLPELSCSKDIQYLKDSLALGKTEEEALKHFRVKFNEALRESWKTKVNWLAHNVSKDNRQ

| IC50 | SMILES |
| --- | --- |
| ≤ 10 nM | CCOc1c(C(C)n2cc(C)c3c(N)ncnc32)cc(Cl)c(C#N)c1C1CN(CCO)C1 (configuration not stated) |
| ≤ 10 nM | CCOc1c(C(C)n2nc(C)c3c(N)ncnc32)cc(Cl)c(C#N)c1C1CN(CC)C1 (configuration not stated) |
| ≤ 10 nM | CCOc1c(C(C)n2nc(C(F)F)c3c(N)ncnc32)cc(Cl)c(F)c1C1CN(CC(C)(C)O)C1 (configuration not stated) |
| ≤ 10 nM | CCOc1c(C(C)n2nc(C)c3c(N)ncnc32)cc(Cl)c(C#N)c1N1CC(OC)C1 (configuration not stated) |
| ≤ 10 nM | COc1c(C(C)n2nc(C)c3c(N)ncnc32)cc(Cl)c(C#N)c1C1CN(C2CCOCC2)C1 (configuration not stated) |
| ≤ 10 nM | CCOc1c(C(C)n2nc(C)c3c(N)ncnc32)cc(Cl)c(F)c1C1CN(CC(C)(C)O)C1 (configuration not stated) |
| ≤ 10 nM | CCOc1c(C(C)n2nc(C)c3c(N)ncnc32)cc(Cl)c(C#N)c1C1CN(C(C)=O)C1 (configuration not stated) |
| ≤ 10 nM | CCOc1c(C(C)n2nc(C)c3c(N)ncnc32)cc(C)c(C#N)c1C1CN(CCO)C1 (configuration not stated) |
| ≤ 10 nM | CCOc1c(C(C)n2nc(C)c3c(N)ncnc32)cc(Cl)c(F)c1C1CN(C[C@H](C)O)C1 (some centres not stated) |
| ≤ 10 nM | CCOc1c(C(C)n2nc(C)c3c(N)ncnc32)cc(Cl)c(F)c1C1CNC(=O)C1 (configuration not stated) |
| ≤ 10 nM | CCOc1c(C(C)n2nc(C)c3c(N)ncnc32)cc(Cl)c(C#N)c1C1CN(C)C1 (configuration not stated) |
| ≤ 10 nM | CCOc1c(C(C)n2nc(C)c3c(N)ncnc32)cc(Cl)c(C#N)c1C1CN(C(C)(C)C(=O)N(C)C)C1 (configuration not stated) |
| ≤ 10 nM | CCOc1c(C(C)n2nc(C)c3c(N)ncnc32)cc(Cl)c(C#N)c1C1CN(C(C)C)C1 (configuration not stated) |
| ≤ 10 nM | CCOc1c(C(C)n2ccc(=O)c3c(N)ncnc32)cc(Cl)c(C#N)c1-c1cncc(S(C)(=O)=O)c1 (configuration not stated) |
| ≤ 10 nM | COc1c(C(C)n2nc(C)c3c(N)ncnc32)cc(Cl)c(C#N)c1C1CN(C(=O)N(C)C)C1 (configuration not stated) |
| ≤ 10 nM | CCOc1c(C(C)n2nc(C)c3c(N)ncnc32)cc(Cl)c(C)c1-c1cnn(C)c1 (configuration not stated) |
| ≤ 10 nM | COc1c(C(C)n2nc(C)c3c(N)ncnc32)cc(Cl)c(C#N)c1C1CN(CC2CCOCC2)C1 (configuration not stated) |
| ≤ 10 nM | CCOc1c(C(C)n2nc(C)c3c(N)ncnc32)cc(Cl)c(C#N)c1C1CN(CC2CCOCC2)C1 (configuration not stated) |
| ≤ 10 nM | COc1c(C(C)n2nc(C)c3c(N)ncnc32)cc(Cl)c(C#N)c1C1CN(C(=O)OC(C)C)C1 (configuration not stated) |
| ≤ 10 nM | COc1c(C(C)n2nc(C)c3c(N)ncnc32)cc(Cl)c(C#N)c1C1CN(CC2CC2)C1 (configuration not stated) |

| IC50 | SMILES |
| --- | --- |
| ≤ 10 nM | CCOc1c(C(C)n2nc(C)c3c(N)ncnc32)cc(Cl)c(C#N)c1C1CN(C(=O)C(C)(C)C)C1 (configuration not stated) |
| ≤ 10 nM | COc1c(C(C)n2nc(C)c3c(N)ncnc32)cc(Cl)c(C)c1C1CN(CC(N)=O)C1 (configuration not stated) |
| ≤ 10 nM | COc1c(C(C)n2nc(C)c3c(N)ncnc32)cc(Cl)c(C)c1C1CN(CC#N)C1 (configuration not stated) |
| ≤ 10 nM | CCOc1c(C(C)n2nc(C)c3c(N)ncnc32)cc(Cl)c(C#N)c1C1CN(C(=O)C(C)C)C1 (configuration not stated) |
| ≤ 10 nM | COC(=O)N1CC(c2c(C#N)c(Cl)cc(C(C)n3nc(C)c4c(N)ncnc43)c2OC)C1 (configuration not stated) |
| ≤ 10 nM | CCOc1c(C(C)n2ccc(=O)c3c(N)ncnc32)cc(Cl)c(C)c1C1CN(C(C)C)C1 (configuration not stated) |
| ≤ 10 nM | CCOc1c(C(C)n2nc(C(F)F)c3c(N)ncnc32)cc(Cl)c(F)c1C1CN(C[C@H](C)O)C1 (some centres not stated) |
| ≤ 10 nM | CCOc1c(C(C)n2nc(C(F)F)c3c(N)ncnc32)cc(Cl)c(F)c1C1CN(C(C)C)C1 (configuration not stated) |
| ≤ 10 nM | CCOc1c(C(C)n2ccc(=O)c3c(N)ncnc32)cc(Cl)c(C#N)c1-c1ccc(C(=O)N(C)C)nc1 (configuration not stated) |
| ≤ 10 nM | COc1c(C(C)n2nc(C)c3c(N)ncnc32)cc(Cl)c(C)c1C1CN(CCO)C1 (configuration not stated) |
| ≤ 10 nM | COc1c(C(C)n2nc(C(F)F)c3c(N)ncnc32)cc(Cl)c(F)c1C1CN(C[C@H](C)O)C1 (some centres not stated) |
| ≤ 10 nM | CCOc1c(C(C)n2nc(C)c3c(N)ncnc32)cc(Cl)c(F)c1C1CN(C(C)C)C1 (configuration not stated) |
| ≤ 10 nM | CCOc1c(C(C)n2nc(C)c3c(N)ncnc32)cc(Cl)c(C#N)c1C1CN(C(C)(C)C(=O)NC)C1 (configuration not stated) |
| ≤ 10 nM | CCOc1c(C(C)n2nc(C)c3c(N)ncnc32)cc(Cl)c(C)c1C1CN(C(=O)[C@H](C)O)C1 (some centres not stated) |
| ≤ 10 nM | CCOc1c(C(C)n2nc(C)c3c(N)ncnc32)cc(Cl)c(C#N)c1C1CN(CCOC)C1 (configuration not stated) |
| ≤ 10 nM | COc1c(C(C)n2nc(C)c3c(N)ncnc32)cc(Cl)c(C)c1C1CN([C@@H](C)CO)C1 (some centres not stated) |
| ≤ 10 nM | CCOc1c(C(C)n2nc(C)c3c(N)ncnc32)cc(Cl)c(C)c1C1CN(CCO)C1 (configuration not stated) |
| ≤ 10 nM | COc1c(C(C)n2nc(C)c3c(N)ncnc32)cc(Cl)c(C)c1C1CN(CC(F)(F)F)C1 (configuration not stated) |
| ≤ 10 nM | CCOc1c(C(C)n2nc(C)c3c(N)ncnc32)cc(Cl)c(C)c1C1CN(C[C@@H](C)O)C1 (some centres not stated) |
| ≤ 10 nM | CCOc1c(C(C)n2nc(C)c3c(N)ncnc32)cc(Cl)c(C#N)c1C1CN(C(=O)N(C)C)C1 (configuration not stated) |

Second part, the compound before the results:

| SMILES | IC50 |
| --- | --- |
| COc1c(C(C)n2nc(C)c3c(N)ncnc32)cc(Cl)c(C)c1-c1cncc(C#N)c1 (configuration not stated) | ≤ 10 nM |
| COc1c(C(C)n2cc(-c3cn[nH]c3)c(=O)c3c(N)ncnc32)cc(Cl)c(C)c1-c1ccc(C(=O)N(C)C)nc1 (configuration not stated) | ≤ 10 nM |
| COc1c(C(C)n2nc(C)c3c(N)ncnc32)cc(Cl)c(C)c1-c1cncc(S(C)(=O)=O)c1 (configuration not stated) | ≤ 10 nM |
| CCOc1c(C(C)n2nc(-c3cnc(N)nc3)c3c(N)ncnc32)cc(Cl)c(C)c1-c1ccc(C(=O)N(C)C)nc1 (configuration not stated) | ≤ 10 nM |
| CCOc1c(C(C)n2nc(-c3ccncc3)c3c(N)ncnc32)cc(Cl)c(C)c1-c1ccc(C(=O)N(C)C)nc1 (configuration not stated) | ≤ 10 nM |
| CCOc1c(C(C)n2nc(C)c3c(N)ncnc32)cc(C)c(C#N)c1-c1ccnc(S(C)(=O)=O)c1 (configuration not stated) | ≤ 10 nM |
| COc1c(C(C)n2nc(C)c3c(N)ncnc32)cc(Cl)c(C)c1-c1ccc(C(=O)N(C)C)nc1 (configuration not stated) | ≤ 10 nM |
| COc1c(C(C)n2nc(C(F)F)c3c(N)ncnc32)cc(C#N)c(C)c1C1CN(C(C)C)C1 (configuration not stated) | ≤ 10 nM |
| CCOc1c(C(C)n2nc(-c3ccc(F)cc3)c3c(N)ncnc32)cc(Cl)c(C)c1-c1ccc(C(=O)N(C)C)nc1 (configuration not stated) | 10 to 50 nM |
| COc1c(C(C)n2nc(C)c3c(N)ncnc32)cc(Cl)c(C)c1C1CN(C(C)C)C1 (configuration not stated) | ≤ 10 nM |
| COc1c(C(C)n2nc(C)c3c(N)ncnc32)cc(Cl)c(C)c1C1CN([C@H](C)C(=O)N(C)C)C1 (some centres not stated) | ≤ 10 nM |
| COc1c(C(C)n2nc(C)c3c(N)ncnc32)cc(Cl)c(C)c1CC1CC1 (configuration not stated) | 50 to 200 nM |
| CCNC(=O)c1c(C)c(Cl)cc(C(C)n2nc(-c3ccc4cn[nH]c4c3)c3c(N)ncnc32)c1OCC (configuration not stated) | ≤ 10 nM |
| COc1c(C(C)n2ccc3c(N)ncnc32)cc(Cl)c(C)c1-c1ccc(C(=O)N(C)C)nc1 (configuration not stated) | 200 to 500 nM |
| COc1c(C(C)n2nc(C)c3c(N)ncnc32)cc(Cl)c(C)c1C1CCN(CC(C)(C)O)CC1 (configuration not stated) | ≤ 10 nM |
| COc1c(C(C)n2nc(C)c3c(N)ncnc32)cc(Cl)c(C)c1-c1ccc(N)nc1 (configuration not stated) | ≤ 10 nM |
| COc1c(C(C)n2nc(C)c3c(N)ncnc32)cc(Cl)c(C)c1-c1ccnc(C(=O)N(C)CCO)c1 (configuration not stated) | ≤ 10 nM |
| CCNC(=O)c1c(C)c(Cl)cc(C(C)n2nc(-c3ccc4oc(N)nc4c3)c3c(N)ncnc32)c1OCC (configuration not stated) | ≤ 10 nM |
| COc1c(C(C)n2nc(C)c3c(N)ncnc32)cc(Cl)c(C)c1-c1ccc(NCCO)nc1 (configuration not stated) | ≤ 10 nM |
| CCOc1c(C(C)n2nc(C)c3c(N)ncnc32)cc(C#N)c(C)c1-c1cnn(C)c1 (configuration not stated) | ≤ 10 nM |
| COc1c(C(C)n2nc(C)c3c(N)ncnc32)cc(Cl)c(C)c1-c1ccc(OCCO)nc1 (configuration not stated) | ≤ 10 nM |
| COc1c(C(C)n2nc(C)c3c(N)ncnc32)cc(Cl)c(C)c1-c1ccc(C(=O)NCCO)nc1 (configuration not stated) | ≤ 10 nM |
| COc1c(C(C)n2ccc(=O)c3c(N)ncnc32)cc(Cl)c(C)c1-c1cccnc1 (configuration not stated) | ≤ 10 nM |
| COc1c(C(C)n2nc(C)c3c(N)nccc32)cc(Cl)c(C)c1-c1ccc(C(=O)N(C)C)nc1 (configuration not stated) | 50 to 200 nM |

| SMILES | IC50 |
| --- | --- |
| COc1c(C(C)n2nc(C)c3c(N)ncnc32)cc(Cl)c(C)c1C1CN(C[C@@H](O)C(F)(F)F)C1 (some centres not stated) | ≤ 10 nM |
| COc1c(C(C)n2nc(C)c3c(N)ncnc32)cc(Cl)c(C#N)c1-c1cncc(S(C)(=O)=O)c1 (configuration not stated) | ≤ 10 nM |
| CNC(=O)[C@@H](C)N1CC(c2c(C)c(Cl)cc(C(C)n3nc(C)c4c(N)ncnc43)c2OC)C1 (some centres not stated) | ≤ 10 nM |
| COc1c(C(C)n2nc(C)c3c(N)ncnc32)cc(Cl)c(C)c1-c1ccnc(C(=O)NCCO)c1 (configuration not stated) | ≤ 10 nM |
| COc1c(C(C)n2nc(C)c3c(N)ncnc32)cc(Cl)c(C)c1C1CN(C(C)CF)C1 (configuration not stated) | ≤ 10 nM |
| CCOc1c(C(C)n2nc(-c3cccc(F)c3)c3c(N)ncnc32)cc(Cl)c(C)c1-c1ccc(C(=O)N(C)C)nc1 (configuration not stated) | ≤ 10 nM |
| CCOc1c(C(C)n2nc(C)c3c(N)ncnc32)cc(Cl)c(C)c1-c1ccnc(C(=O)N(C)CCO)c1 (configuration not stated) | ≤ 10 nM |
| CNC(=O)c1ccc(-c2c(C)c(Cl)cc(C(C)n3nc(C)c4c(N)ncnc43)c2OC)cn1 (configuration not stated) | ≤ 10 nM |
| COc1c(C(C)n2nc(C(F)F)c3c(N)ncnc32)cc(Cl)c(C)c1-c1ccc(C(=O)N(C)C)nc1 (configuration not stated) | ≤ 10 nM |
| CCOc1c(C(C)n2nc(C)c3c(N)ncnc32)cc(Cl)c(C#N)c1-c1cncc(C(=O)N(C)C)c1 (configuration not stated) | ≤ 10 nM |
| CCOc1c(C(C)n2nc(-c3cn[nH]c3)c3c(N)ncnc32)cc(Cl)c(C)c1-c1ccc(C(=O)N(C)C)nc1 (configuration not stated) | ≤ 10 nM |
| CCOc1c(C(C)n2nc(CNC)c3c(N)ncnc32)cc(Cl)c(C)c1-c1ccc(C(=O)N(C)C)nc1 (configuration not stated) | 50 to 200 nM |
| CNC(=O)N1CC(c2c(C)c(Cl)cc(C(C)n3nc(C)c4c(N)ncnc43)c2OC)C1 (configuration not stated) | ≤ 10 nM |
| COc1c(C(C)n2nc(C)c3c(N)ncnc32)cc(Cl)c(C)c1-c1cnn(C2CCN(C(C)=O)CC2)c1 (configuration not stated) | ≤ 10 nM |
| CCOc1c(C(C)n2nc(C)c3c(N)ncnc32)cc(Cl)c(C)c1-c1ccc(C(=O)N(C)C)nc1 (configuration not stated) | ≤ 10 nM |
| COc1c(C(C)n2nc(C)c3c(N)ncnc32)cc(Cl)c(C)c1C1CN(C(C)=O)C1 (configuration not stated) | ≤ 10 nM |
| COc1c(C(C)n2nc(C)c3c(N)ncnc32)cc(Cl)c(C)c1-c1cncc(C(=O)N(C)CCO)c1 (configuration not stated) | ≤ 10 nM |
| COc1c(C(C)n2nc(C)c3c(N)ncnc32)cc(Cl)c(C)c1-c1cncc(C(=O)N(C)CCN)c1 (configuration not stated) | ≤ 10 nM |
| COc1c(C(C)n2nc(C)c3c(N)ncnc32)cc(Cl)c(C)c1C1CNC(=O)CO1 (configuration not stated) | ≤ 10 nM |
| COc1c(C(C)n2nc(C)c3c(N)ncnc32)cc(Cl)c(C)c1-c1cncc(C(=O)N2CCC(O)CC2)c1 (configuration not stated) | ≤ 10 nM |
| COc1c(C(C)n2nc(C)c3c(N)ncnc32)cc(Cl)c(C)c1-c1ccc(C(=O)N(C)CCO)nc1 (configuration not stated) | ≤ 10 nM |
| COc1c(C(C)n2nc(C)c3c(N)ncnc32)cc(Cl)c(C)c1C1CN(C2COC2)C1 (configuration not stated) | ≤ 10 nM |
| COc1c(C(C)n2ccc(=O)c3c(N)ncnc32)cc(Cl)c(C)c1-c1cncc(S(C)(=O)=O)c1 (configuration not stated) | ≤ 10 nM |
